From publication PMC3661587, “Estrone-3-Sulphate, a Potential Novel Ligand for Targeting Breast Cancers” (PLoS ONE, 2013)
Where two headings read alike, the source gives them in different places.

Details: mouse, in vivo
Protocol: Solid phase extraction (SPE) and HPLC analysis of plasma were performed as previously described with minor modifications, [23]. SPE was performed using Sep-Pak C18 columns (Waters, Mississauga, ON). The column was activated using methanol, followed by water. 100 µL of plasma was then loaded on to the activated column. This was followed by successive washing steps with water and hexane. The analyte was eluted from the column using methanol and then dried under a stream of N2. The sample was reconstituted in DMSO:Methanol 1∶1 v/v prior to HPLC analysis. […] The radioactivity in each eluate was determined by liquid scintillation counting. […] The methanol eluates were used for HPLC analysis.
Separation was performed using a Waters C18 reversed-phase HPLC column (XTerra RP-C18, 5 µm, 4.6×250 mm I.D.) Analytes were eluted using an isocratic-gradient of 20 mM ammonium sulphate buffer (solvent A) and methanol (solvent B). The mobile phase consisted of solvent A/solvent B; 60/40% for 0–5 min, followed by a linear gradient of 60/40% to 25/75% for 5–45 and 25/75% for 45–50 min at a flow rate of 1.0 mL/min and UV detection at 280 nm. The HPLC eluate from the UV detector was collected every minute for over 50 min in eppendorf tubes and radioactivity in each sample was determined.

% of total radioactivity in plasma (2 h)	% of total radioactivity in plasma (6 h)	% of total radioactivity in plasma (48 h)	Compound
2.2±1.23%	3.2±0.2%	3.2±0.45%	C[C@]12CC[C@@H]3c4ccc(O)cc4CC[C@H]3[C@@H]1CC[C@@H]2O [Estradiol, estradiol]
1.02±0.24%	1.7±0.8%		C[C@]12CC[C@@H]3c4ccc(O)cc4CC[C@H]3[C@@H]1CCC2=O [Estrone, estrone]
